# Measured values as given in patent US12503438B2, “Compounds for the treatment of kinase-dependent disorders” (Exelixis, Inc., priority 2019, dated 2025).
# Assays:
# [1] = target: T1, Human Mer (Homo sapiens, UniProt Q12866); experiment: Human Mer kinase assay (33P-phosphoryl transfer radiometric, KinaseProfiler); details: biochemical activity; 10 μM ATP
# T1 construct: Human Mer (residues R557-E882 with H628Q and R794A, 0.7 nM); purchased Eurofins Pharma Discovery Services UK Limited (KinaseProfiler service)
# T1 sequence (Q12866 557-882 limits assumed): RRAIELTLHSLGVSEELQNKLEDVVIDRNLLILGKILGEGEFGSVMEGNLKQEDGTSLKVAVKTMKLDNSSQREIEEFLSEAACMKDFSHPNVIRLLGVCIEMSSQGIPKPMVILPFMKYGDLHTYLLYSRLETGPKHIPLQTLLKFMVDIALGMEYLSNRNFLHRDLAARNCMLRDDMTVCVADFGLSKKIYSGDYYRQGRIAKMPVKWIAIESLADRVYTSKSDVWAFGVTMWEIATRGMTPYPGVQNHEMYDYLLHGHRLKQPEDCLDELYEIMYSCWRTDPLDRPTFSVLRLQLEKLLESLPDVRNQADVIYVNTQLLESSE
# Experimental: (§1) Kinase activity and compound inhibition were investigated using the ^33P-Phosphoryl transfer radiometric kinase assay, performed using the KinaseProfiler™ service of Eurofins Pharma Discovery Services UK Limited. Dose-response experiments were performed using nine compound concentrations in a 96-well microtiter plate. For each assay, all compounds were prepared to a 50× final assay concentration (50 μM) in 100% DMSO, then diluted in a half-log series, with the final top concentration at 1 μM. This working stock of the compound was added to the assay well as the first component in the reaction, followed by the remaining components as detailed in the following assay protocols below. The positive control wells (100% kinase activity) contain all components of the reaction including 2% DMSO (control for solvent effects), except the compound of interest. Blank wells contain all components of the reaction, with the reference inhibitor, staurosporine. This reference compound was used to abolish kinase activity and generated the 0% kinase activity base-line. IC50 values were calculated by nonlinear regression analysis using the sigmoidal dose-response (variable slope) curve fit on XLFit version 5.3 (ID Business Solutions).
# (§2) Human Mer (residues R557-E882 with H628Q and R794A, 0.7 nM) was incubated with 8 mM MOPS pH 7.0, 0.2 mM EDTA, 30 mM NaCl, 250 μM GGMEDIYFEFMGGKKK, 10 mM magnesium acetate and 10 μM [y-^33P-ATP]. The reaction was initiated by the addition of the Mg/ATP mix. After incubation for 40 minutes at room temperature, the reaction was stopped by the addition of phosphoric acid to a concentration of 0.5%. A reaction aliquot of 10 μL was then spotted onto a P30 filtermat and washed four times for 4 minutes in 0.425% phosphoric acid and once in methanol prior to drying and scintillation counting. Incorporated ^33P was measured using the Wallac Microbeta scintillation counter (Perkin Elmer).
# [2] = target: KDR (Homo sapiens, UniProt P35968); experiment: Human KDR kinase assay (33P-phosphoryl transfer radiometric, KinaseProfiler); set-up: Human KDR (residues K790-V1356, 55 nM); purchased Eurofins Pharma Discovery Services UK Limited (KinaseProfiler service); details: biochemical activity; 10 μM ATP
# Chain of KDR (P35968 790-1356): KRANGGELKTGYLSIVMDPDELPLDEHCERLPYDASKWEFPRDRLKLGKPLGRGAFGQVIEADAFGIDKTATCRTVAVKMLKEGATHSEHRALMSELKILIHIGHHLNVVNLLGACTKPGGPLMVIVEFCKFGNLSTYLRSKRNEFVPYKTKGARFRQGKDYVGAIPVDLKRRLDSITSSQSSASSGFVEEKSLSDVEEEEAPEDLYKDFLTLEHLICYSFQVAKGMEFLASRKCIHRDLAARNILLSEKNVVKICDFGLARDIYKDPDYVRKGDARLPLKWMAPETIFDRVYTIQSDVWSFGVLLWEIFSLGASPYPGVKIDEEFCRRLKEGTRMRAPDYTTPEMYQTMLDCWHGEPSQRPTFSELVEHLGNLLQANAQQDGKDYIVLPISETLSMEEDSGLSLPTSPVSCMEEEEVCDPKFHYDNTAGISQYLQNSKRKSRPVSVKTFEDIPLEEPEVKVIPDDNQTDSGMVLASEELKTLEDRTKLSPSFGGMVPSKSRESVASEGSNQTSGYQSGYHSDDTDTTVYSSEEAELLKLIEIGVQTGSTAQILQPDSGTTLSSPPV
# Experimental: as §1
# as §2, with “KDR” for “Mer”, “K790-V1356, 55” for “R557-E882 with H628Q and R794A, 0.7”, “0.33 mg/mL myelin basic protein,” for “30 mM NaCl, 250 μM GGMEDIYFEFMGGKKK,”, “acetate,” for “acetate”, “[γ-^33P-ATP].” for “[y-^33P-ATP].”
SMILES,IC50 [1],IC50 [2]
"O=C(Nc1ccc(F)cc1)C1(C(=O)Nc2ccc(Oc3ccnc4cc(-c5ccnnc5)ccc34)cc2)CC1 [Compound 28, 1-N′-(4-Fluorophenyl)-1-N-[4-(7-pyridazin-4-ylquinolin-4-yl)oxyphenyl]cyclopropane-1,1-dicarboxamide]",≤ 10 nM,10 to 100 nM
"O=C(Nc1ccc(F)cc1)C1(C(=O)Nc2ccc(Oc3ccnc4cc(-c5ncco5)ccc34)cc2)CC1 [Compound 66, 1-N′-(4-Fluorophenyl)-1-N-[4-[7-(1,3-oxazol-2-yl)quinolin-4-yl]oxyphenyl]cyclopropane-1,1-dicarboxamide]",≤ 10 nM,10 to 100 nM
"O=C(Nc1ccc(F)cc1)C1(C(=O)Nc2ccc(Oc3ccnc4cc(-c5cnn(CC(F)F)c5)ccc34)cc2)CC1 [Compound 15, 1-N-[4-[7-[1-(2,2-Difluoroethyl)pyrazol-4-yl]quinolin-4-yl]oxyphenyl]-1-N′-(4-fluorophenyl)cyclopropane-1,1-dicarboxamide]",≤ 10 nM,10 to 100 nM
"O=C(Nc1ccc(F)cc1)C1(C(=O)Nc2ccc(Oc3ccnc4cc(-c5ccn(C(F)F)n5)ccc34)cc2)CC1 [Compound 84, 1-N-[4-[7-[1-(Difluoromethyl)pyrazol-3-yl]quinolin-4-yl]oxyphenyl]-1-N′-(4-fluorophenyl)cyclopropane-1,1-dicarboxamide]",≤ 10 nM,10 to 100 nM
